Legend:
Assay type in all cases: cell-based
H. influenzae UC30063 = assay: Antibacterial activity, MIC; conditions: strain UC30063
M. catarrhalis UC30607 = assay: Antibacterial activity, MIC; conditions: strain UC30607
S. aureus UC9218 = assay: Antibacterial activity, MIC; conditions: strain UC9218
S. pneumoniae UC9912 = assay: Antibacterial activity, MIC; conditions: strain UC9912
E. faecalis UC9217 = assay: Antibacterial activity, MIC; conditions: strain UC9217
E. coli UC6674 = assay: Antibacterial activity, MIC; conditions: strain UC6674
[1] = test system: E. faecalis, S. aureus, S. pneumoniae, H. influenzae, M. catarrhalis, E. coli; assay: Antibacterial activity, overall statement on Table 1; conditions: summary in words of Table 1

MIC H. influenzae UC30063 (H. influenzae UC30063) | MIC M. catarrhalis UC30607 (M. catarrhalis UC30607) | MIC S. aureus UC9218 (S. aureus UC9218) | MIC S. pneumoniae UC9912 (S. pneumoniae UC9912) | MIC E. faecalis UC9217 (E. faecalis UC9217) | MIC E. coli UC6674 (E. coli UC6674) | Compound | antibacterial activity [1]
4 :g/mL | 2 :g/mL | 1 :g/mL | 0.25 :g/mL | 0.5 :g/mL | 16 :g/mL | CC(=O)NC[C@H]1CN(c2ccc(N3CCN(c4c(F)cc5c(=O)c(C(=O)O)cn6c5c4OCC6C)CC3)c(F)c2)C(=O)O1 (stereo partly shown) [Example 2] | 
8 :g/mL | 1 :g/mL | 0.5 :g/mL | 0.125 :g/mL | 0.25 :g/mL | 16 :g/mL | CC(=O)NC[C@H]1CN(c2ccc(N3CCN(c4cc5c(cc4F)c(=O)c(C(=O)O)cn5C4CC4)CC3)c(F)c2)C(=O)O1 [Example 1] | 
0.5 :g/mL | 4 :g/mL | 2 :g/mL | 4 :g/mL | 8 :g/mL | 4 :g/mL | CC(=O)NC[C@H]1CN(c2ccc(-c3cc4c(cc3F)c(=O)c(C(=O)O)cn4C3CC3)c(F)c2)C(=O)O1 [Example 3, 7-(4{(5S)-5-[(Acetylamino)methyl]2-oxo-1,3-oxazolidin-3-yl}-2-fluorophenyl)-1-cyclopropyl-6-fluoro-4-oxo-1,4-dihydro-3-quinolinecarboxylic acid] | potent antibacterial activity

From US6869965B2, “Antimicrobial quinolone derivatives and use of the same to treat bacterial infections” (Pharmacia & Upjohn Company, priority 2000, dated 2005)
